ChEMBL document CHEMBL1153897, “Small molecules with potent osteogenic-inducing activity in osteoblast cells” (Bioorg Med Chem Lett, 2009)
The source made the active and inactive calls. The calls are words filed in the database; no cut-off is given here.

Legend:
[1] = Cytotoxicity against mouse MC3T3-E1 cells after 4 hrs by fluorescent Alamar blue assay; format: cell-based; details: mc3t3-e1, 4 h
MC3T3-E1 [2] = assay: Induction of osteogenesis in mouse MC3T3-E1 cells assessed as alkaline phosphatase secretion at 25 uM after 3 weeks by ELISA; format: functional, cell-based; details: MC3T3-E1, 504 h
[3] = Antiproliferative activity against mouse MC3T3-E1 cells after 24 hrs by BrdU incorporation assay; format: cell-based; details: mc3t3-e1, 24 h
MC3T3-E1 [4] = assay: Induction of osteogenesis in mouse MC3T3-E1 cells assessed as osteocalcin secretion at 25 uM after 3 weeks; format: functional, cell-based; details: MC3T3-E1, 504 h
MC3T3-E1 [5] = assay: Induction of osteogenesis in mouse MC3T3-E1 cells assessed as calcium level at 25 uM after 3 weeks; format: functional, cell-based; details: MC3T3-E1, 504 h
MC3T3-E1 [6] = assay: Inhibition of staurosporine-induced apoptosis in mouse MC3T3-E1 cells by caspase 3 colorimetric assay; format: functional, cell-based
[7] = Cytotoxicity against mouse MC3T3-E1 cells assessed as increase in apoptosis treated for 3 hrs measured after 22 hrs by caspase 3 colorimetric assay; format: cell-based

Row | EC50 (MC3T3-E1 [2]) [nM] | EC50 (MC3T3-E1 [4]) [nM] | EC50 (MC3T3-E1 [5]) [nM] | Compound | Activity [1] | Activity [3] | Activity (MC3T3-E1 [6]) | Activity [7]
1 | 90 | 30 | 50 | COc1cc2nccc(Oc3ccc4c(C(=O)Nc5ccc(C)cc5)cccc4c3)c2cc1OC | Non-toxic | Dose-dependent effect | inactive | 
2 | 120 | 100 | 150 | COc1cc2nccc(Oc3ccc4c(NC(=O)c5ccc(C)cc5)cccc4c3)c2cc1OC |  |  |  | 
3 |  |  |  | CN[C@@H]1C[C@H]2O[C@@](C)([C@@H]1OC)n1c3ccccc3c3c4c(c5c6ccccc6n2c5c31)C(=O)NC4 [STAUROSPORINE] |  |  |  | Non-toxic
